Data on one compound can be found in publication PMC3078584 (Analytical biochemistry, 2010).

The test deals with T1, His-Cbl(TKB) (Homo sapiens, UniProt P22681).
T1 sequence (P22681 47-351 limits assumed): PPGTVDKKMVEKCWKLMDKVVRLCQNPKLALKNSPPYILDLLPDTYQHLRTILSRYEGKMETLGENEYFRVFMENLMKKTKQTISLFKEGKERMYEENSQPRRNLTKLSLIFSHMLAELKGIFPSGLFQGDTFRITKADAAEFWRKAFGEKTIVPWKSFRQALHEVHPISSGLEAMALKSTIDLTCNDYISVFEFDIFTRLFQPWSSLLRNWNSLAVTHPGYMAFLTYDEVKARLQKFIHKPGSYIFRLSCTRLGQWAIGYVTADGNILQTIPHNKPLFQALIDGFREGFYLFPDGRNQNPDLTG
Briefly: Competitive FP assay, displacement of labeled ZAP70 peptide 1 from His-Cbl. The test is classed as binding. The settings on record: 100 nM labeled peptide 1.

For `CC(=O)N[C@H](C(=O)N[C@@H](CC(C)C)C(=O)N[C@@H](CC(N)=O)C(=O)N[C@@H](CO)C(=O)N[C@@H](CC(=O)O)C(=O)NCC(=O)N[C@@H](Cc1ccc(OP(=O)(O)O)cc1)C(=O)N[C@H](C(=O)N1CCC[C@H]1C(=O)N[C@@H](CCC(=O)O)C(=O)N1CCC[C@H]1C(=O)N[C@@H](C)C(N)=O)[C@@H](C)O)[C@@H](C)O` [ZAP70 peptide 2, Ac-TLNSDGpYTPEPA-CONH2], the “ΔmP (competition)” value is recorded as “do not give measureable IC50 or ΔmP values” (0.3 μM His-Cbl(TKB)); “do not give measureable IC50 or ΔmP values” (1.25 μM His-Cbl(TKB)); 52.5 mP (5 μM His-Cbl(TKB)); 85.2 mP (9 μM His-Cbl(TKB)); 25.7 mP ([…] His-Cbl(TKB)).
